Test results taken from patent US11053204B2, “Pyrimidinyloxy benzene derivatives as herbicides” (FMC Corporation, priority 2015, dated 2021).

What was measured:
Format in all cases: in vivo
[1] = tested on: Italian ryegrass (Lolium multiflorum); experiment: Test A preemergence, visual injury rating; details: 0 to 100 scale (0 no effect, 100 complete control)
Procedure, shortened: (§1)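 Visual injury scored 0–100 (100 = complete control) against untreated controls about 10 days after treatment in a greenhouse. Test chemicals, formulated with surfactant in non-phytotoxic solvent, were sprayed on soil preemergence or on 2-10 cm, one- to two-leaf plants postemergence.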

[2] = tested on: barnyardgrass (Echinochloa crus-galli); experiment: Test A preemergence, visual injury rating; details: 0 to 100 scale (0 no effect, 100 complete control)
Procedure, shortened: as §1

[3] = tested on: giant foxtail (Setaria faberii); experiment: Test A preemergence, visual injury rating; details: 0 to 100 scale (0 no effect, 100 complete control)
Procedure, shortened: as §1

kochia (Kochia scoparia) [4] = experiment: Test A preemergence, visual injury rating; details: 0 to 100 scale (0 no effect, 100 complete control)
Procedure, shortened: as §1

[5] = tested on: pigweed (Amaranthus retroflexus); experiment: Test A preemergence, visual injury rating; details: 0 to 100 scale (0 no effect, 100 complete control)
Procedure, shortened: as §1

[6] = tested on: ragweed (common ragweed, Ambrosia elatior); experiment: Test A preemergence, visual injury rating; details: 0 to 100 scale (0 no effect, 100 complete control)
Procedure, shortened: as §1

[7] = tested on: Italian ryegrass (Lolium multiflorum); experiment: Test A postemergence, visual injury rating; details: 0 is no effect, 100 is complete control
Procedure, shortened: as §1

[8] = tested on: barnyardgrass (Echinochloa crus-galli); experiment: Test A postemergence, visual injury rating; details: 0 is no effect, 100 is complete control
Procedure, shortened: as §1

[9] = tested on: blackgrass (Alopecurus myosuroides); experiment: Test A postemergence, visual injury rating; details: 0 is no effect, 100 is complete control
Procedure, shortened: as §1

corn (Zea mays) = experiment: Test A postemergence, visual injury rating; details: 0 is no effect, 100 is complete control
Procedure, shortened: as §1

[10] = tested on: galium (catchweed bedstraw, Galium aparine); experiment: Test A postemergence, visual injury rating; details: 0 is no effect, 100 is complete control
Procedure, shortened: as §1

[11] = tested on: giant foxtail (Setaria faberii); experiment: Test A postemergence, visual injury rating; details: 0 is no effect, 100 is complete control
Procedure, shortened: as §1

kochia (Kochia scoparia) [12] = experiment: Test A postemergence, visual injury rating; details: 0 is no effect, 100 is complete control
Procedure, shortened: as §1

[13] = tested on: pigweed (Amaranthus retroflexus); experiment: Test A postemergence, visual injury rating; details: 0 is no effect, 100 is complete control
Procedure, shortened: as §1

[14] = tested on: ragweed (common ragweed, Ambrosia elatior); experiment: Test A postemergence, visual injury rating; details: 0 is no effect, 100 is complete control
Procedure, shortened: as §1

[15] = tested on: wheat (Triticum aestivum); experiment: Test A postemergence, visual injury rating; details: 0 is no effect, 100 is complete control
Procedure, shortened: as §1

[16] = tested on: barnyardgrass (Echinochloa crus-galli); experiment: Test B flooded paddy test, plant response rating; details: 250 g ai/ha; Flood; scale of 0 to 100 where 0 is no effect and 100 is complete control; 13 to 15 days
Procedure, shortened: (§2)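 Test compounds are applied straight into paddy water held 3 cm above the soil surface, with that flood maintained for the whole test. After 13 to 15 days in the greenhouse, each species is scored visually relative to controls.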

[17] = tested on: ducksalad (Heteranthera limosa); experiment: Test B flooded paddy test, plant response rating; details: 250 g ai/ha; Flood; scale of 0 to 100 where 0 is no effect and 100 is complete control; 13 to 15 days
Procedure, shortened: as §2

rice (Oryza sativa) = experiment: Test B flooded paddy test, plant response rating; details: 250 g ai/ha; Flood; scale of 0 to 100 where 0 is no effect and 100 is complete control; 13 to 15 days
Procedure, shortened: as §2

[18] = tested on: sedge, umbrella (small-flower umbrella sedge, Cyperus difformis); experiment: Test B flooded paddy test, plant response rating; details: 250 g ai/ha; Flood; scale of 0 to 100 where 0 is no effect and 100 is complete control; 13 to 15 days
Procedure, shortened: as §2

Row | Structure (SMILES) | Ryegrass, Italian plant response rating ([1]; 125 g ai/ha) | Ryegrass, Italian plant response rating ([1]; 500 g ai/ha) | Barnyardgrass plant response rating ([2]; 125 g ai/ha) | Barnyardgrass plant response rating ([2]; 500 g ai/ha) | Foxtail, Giant plant response rating ([3]; 125 g ai/ha) | Foxtail, Giant plant response rating ([3]; 500 g ai/ha) | Kochia plant response rating (kochia (Kochia scoparia) [4]; 125 g ai/ha) | Kochia plant response rating (kochia (Kochia scoparia) [4]; 500 g ai/ha) | Pigweed plant response rating ([5]; 125 g ai/ha) | Pigweed plant response rating ([5]; 500 g ai/ha) | Ragweed plant response rating ([6]; 125 g ai/ha) | Ragweed plant response rating ([6]; 500 g ai/ha) | Ryegrass, Italian plant response rating (0 to 100 scale) ([7]; 125 g ai/ha) | Ryegrass, Italian plant response rating (0 to 100 scale) ([7]; 500 g ai/ha) | Barnyardgrass plant response rating (0 to 100 scale) ([8]; 125 g ai/ha) | Barnyardgrass plant response rating (0 to 100 scale) ([8]; 500 g ai/ha) | Plant response rating, Barnyardgrass [16] | Plant response rating, Ducksalad [17] | Plant response rating, Rice (rice (Oryza sativa)) | Plant response rating, Sedge, Umbrella [18] | other results
1 | O=C(OCC1CCC1)c1c(Br)cccc1Oc1ncc(Cl)cn1 [Compound 8] | 0 | 30 | 30 | 100 | 100 | 100 | 0 | 0 | 10 | 60 | 0 | 0 | 0 | 30 | 10 | 40 | 0 | 0 | 0 | 70 | Blackgrass plant response rating (0 to 100 scale) ([9]; 125 g ai/ha): 0; Blackgrass plant response rating (0 to 100 scale) ([9]; 500 g ai/ha): 20; Corn plant response rating (0 to 100 scale) (corn (Zea mays); 125 g ai/ha): 0; Corn plant response rating (0 to 100 scale) (corn (Zea mays); 500 g ai/ha): 20; Galium plant response rating (0 to 100 scale) ([10]; 125 g ai/ha): 60; Galium plant response rating (0 to 100 scale) ([10]; 500 g ai/ha): 90; Foxtail, Giant plant response rating (0 to 100 scale) ([11]; 125 g ai/ha): 30; Foxtail, Giant plant response rating (0 to 100 scale) ([11]; 500 g ai/ha): 60; Kochia plant response rating (0 to 100 scale) (kochia (Kochia scoparia) [12]; 125 g ai/ha): 40; Kochia plant response rating (0 to 100 scale) (kochia (Kochia scoparia) [12]; 500 g ai/ha): 80; Pigweed plant response rating (0 to 100 scale) ([13]; 125 g ai/ha): 50; Pigweed plant response rating (0 to 100 scale) ([13]; 500 g ai/ha): 90; Ragweed plant response rating (0 to 100 scale) ([14]; 125 g ai/ha): 10; Ragweed plant response rating (0 to 100 scale) ([14]; 500 g ai/ha): 40; Wheat plant response rating (0 to 100 scale) ([15]; 125 g ai/ha): 0; Wheat plant response rating (0 to 100 scale) ([15]; 500 g ai/ha): 0
2 | O=C(OCC1CC1(F)F)c1c(Br)cccc1Oc1ncc(Cl)cn1 (centres unmarked) [Compound 10] | 10 | 30 | 40 | 100 | 100 | 100 | 90 | 100 | 100 | 100 | 0 | 0 | 10 | 60 | 20 | 100 | 0 | 80 | 0 | 80 | Blackgrass plant response rating (0 to 100 scale) ([9]; 125 g ai/ha): 20; Blackgrass plant response rating (0 to 100 scale) ([9]; 500 g ai/ha): 90; Corn plant response rating (0 to 100 scale) (corn (Zea mays); 125 g ai/ha): 10; Corn plant response rating (0 to 100 scale) (corn (Zea mays); 500 g ai/ha): 60; Galium plant response rating (0 to 100 scale) ([10]; 125 g ai/ha): 100; Galium plant response rating (0 to 100 scale) ([10]; 500 g ai/ha): 100; Foxtail, Giant plant response rating (0 to 100 scale) ([11]; 125 g ai/ha): 30; Foxtail, Giant plant response rating (0 to 100 scale) ([11]; 500 g ai/ha): 100; Kochia plant response rating (0 to 100 scale) (kochia (Kochia scoparia) [12]; 125 g ai/ha): 90; Kochia plant response rating (0 to 100 scale) (kochia (Kochia scoparia) [12]; 500 g ai/ha): 100; Pigweed plant response rating (0 to 100 scale) ([13]; 125 g ai/ha): 90; Pigweed plant response rating (0 to 100 scale) ([13]; 500 g ai/ha): 100; Ragweed plant response rating (0 to 100 scale) ([14]; 125 g ai/ha): 10; Ragweed plant response rating (0 to 100 scale) ([14]; 500 g ai/ha): 50; Wheat plant response rating (0 to 100 scale) ([15]; 125 g ai/ha): 0; Wheat plant response rating (0 to 100 scale) ([15]; 500 g ai/ha): 40
3 | CC(C)=CCOC(=O)c1c(Br)cccc1Oc1ncc(Cl)cn1 [Compound 11] | 0 | 0 | 0 | 30 | 40 | 100 | 0 | 0 | 0 | 20 | 0 | 0 | 0 | 0 | 10 | 20 | 0 | 0 | 0 | 0 | Blackgrass plant response rating (0 to 100 scale) ([9]; 125 g ai/ha): 0; Blackgrass plant response rating (0 to 100 scale) ([9]; 500 g ai/ha): 20; Corn plant response rating (0 to 100 scale) (corn (Zea mays); 125 g ai/ha): 0; Corn plant response rating (0 to 100 scale) (corn (Zea mays); 500 g ai/ha): 10; Galium plant response rating (0 to 100 scale) ([10]; 125 g ai/ha): 10; Galium plant response rating (0 to 100 scale) ([10]; 500 g ai/ha): 20; Foxtail, Giant plant response rating (0 to 100 scale) ([11]; 125 g ai/ha): 20; Foxtail, Giant plant response rating (0 to 100 scale) ([11]; 500 g ai/ha): 20; Kochia plant response rating (0 to 100 scale) (kochia (Kochia scoparia) [12]; 125 g ai/ha): 0; Kochia plant response rating (0 to 100 scale) (kochia (Kochia scoparia) [12]; 500 g ai/ha): 40; Pigweed plant response rating (0 to 100 scale) ([13]; 125 g ai/ha): 10; Pigweed plant response rating (0 to 100 scale) ([13]; 500 g ai/ha): 60; Ragweed plant response rating (0 to 100 scale) ([14]; 125 g ai/ha): 0; Ragweed plant response rating (0 to 100 scale) ([14]; 500 g ai/ha): 0; Wheat plant response rating (0 to 100 scale) ([15]; 125 g ai/ha): 0; Wheat plant response rating (0 to 100 scale) ([15]; 500 g ai/ha): 0
4 | CC(=O)c1c(Br)cccc1Oc1ncc(Cl)cn1 [Compound 12] |  |  |  |  |  |  |  |  |  |  |  |  |  |  |  |  | 0 | 0 | 0 | 0 | Ryegrass, Italian plant response rating ([1]; 1000 g ai/ha): 40; Barnyardgrass plant response rating ([2]; 1000 g ai/ha): 80; Foxtail, Giant plant response rating ([3]; 1000 g ai/ha): 100; Kochia plant response rating (kochia (Kochia scoparia) [4]; 1000 g ai/ha): 0; Pigweed plant response rating ([5]; 1000 g ai/ha): 100; Ragweed plant response rating ([6]; 1000 g ai/ha): 80; Ryegrass, Italian plant response rating (0 to 100 scale) ([7]; 1000 g ai/ha): 50; Barnyardgrass plant response rating (0 to 100 scale) ([8]; 1000 g ai/ha): 80; Blackgrass plant response rating (0 to 100 scale) ([9]; 1000 g ai/ha): 50; Corn plant response rating (0 to 100 scale) (corn (Zea mays); 1000 g ai/ha): 20; Galium plant response rating (0 to 100 scale) ([10]; 1000 g ai/ha): 80; Foxtail, Giant plant response rating (0 to 100 scale) ([11]; 1000 g ai/ha): 70; Kochia plant response rating (0 to 100 scale) (kochia (Kochia scoparia) [12]; 1000 g ai/ha): 80; Pigweed plant response rating (0 to 100 scale) ([13]; 1000 g ai/ha): 100; Ragweed plant response rating (0 to 100 scale) ([14]; 1000 g ai/ha): 60; Wheat plant response rating (0 to 100 scale) ([15]; 1000 g ai/ha): 0
